This is an account of results in PMC4991342 (Virulence, 2016).

Series [1] concerns the target recombinant P. falciparum DXP reductoisomerase. The settings on record: read-out: IC50 for recombinant P. falciparum DXP reductoisomerase; cited from earlier work.
In series [2] the test system is acute urinary tract infections. The settings on record: 70 patients with acute urinary tract infections; no details published; cited from earlier work.
A further series concerns P. falciparum malaria. The settings on record: oral monotherapy; clinical phase II; cited from earlier work.
In series [3] the test system is mouse lymphoma L5178Y/TK^+/− cells (clone 3.7.2C). Briefly: In vitro mammalian cell gene mutation test. Type of series: cell-based. The note with it: 4 h without S9-mix.

Each structure is given as a SMILES string.

What is called IC50 is the concentration needed to halve the response being measured. As to `O=CN(O)CCCP(=O)(O)O` [fosmidomycin], in series [1], the IC50 was 32 nM. In addition, the antibacterial efficacy entry in series [2] is “strong antibacterial efficacy”. Besides, the recrudescence result in the series on P. falciparum malaria is “high rate of recrudescent infections”.
For `COS(C)(=O)=O` [MMS, methyl methanesulfonate], the “MF (mutant frequency)” value in series [3] (MMS 10 µg/ml (positive control), relevant increase) is given as 475.5 × 10^−6. Besides, the “mean MF compared to the negative controls” value in series [3] (MMS 10 µg/ml) came to 626%.
